Measurements: patent publication US20090036448A1, “PYRIMIDINE DERIVATIVES AND METHODS OF TREATMENT RELATED TO THE USE THEREOF” (TAISHO PHARMECUTICAL CO., LTD., priority 2004, published 2009)

Each compound was assayed against MCH receptor (Homo sapiens, UniProt Q99705) (assay: Receptor binding assay with Radiolabelled MCH Ligand). Conditions: class by percent of control at 10^-7 M or IC50.
MCH receptor, sequence (Q99705 whole entry): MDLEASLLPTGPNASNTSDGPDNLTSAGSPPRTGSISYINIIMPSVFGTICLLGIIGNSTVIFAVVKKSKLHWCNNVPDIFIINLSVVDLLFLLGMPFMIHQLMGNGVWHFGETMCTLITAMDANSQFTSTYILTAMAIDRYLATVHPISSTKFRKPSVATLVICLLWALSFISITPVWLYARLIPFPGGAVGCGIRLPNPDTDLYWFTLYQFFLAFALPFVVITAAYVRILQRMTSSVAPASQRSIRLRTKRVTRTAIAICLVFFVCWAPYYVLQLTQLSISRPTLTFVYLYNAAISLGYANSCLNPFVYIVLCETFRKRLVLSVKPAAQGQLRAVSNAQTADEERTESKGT
Parameters: expressed in transfected cells; host or cells: 293 cells (human kidney, ATCC), transient transfection; crude membranes
Outline: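 This was a filtration radioligand displacement assay: compounds, first tested at 1 and 0.1 μM and then over a range, inhibited binding of a labelled MCH ligand to transfected 293-cell membranes at room temperature for 60–120 min. Specific binding excluded a cold-MCH nonspecific signal. Ki was derived from IC50 via Cheng-Prusoff, using an independently measured KD.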
For `Cc1nc(N[C@H]2CC[C@@H](NC(=O)C(C)(C)Oc3ccc(Cl)cc3)CC2)cc(N(C)C)n1` [compound 268], the class was 3 (Class 3: The value of percent of control at 10^−7 M was more than 60% or the value of IC50 was more than 200 nM.).
For `Cc1nc(N[C@H]2CC[C@@H](NC(=O)/C=C/c3ccc(OC(F)(F)F)cc3)CC2)cc(N(C)C)n1` [compound 269], the class was 3 (Class 3: The value of percent of control at 10^−7 M was more than 60% or the value of IC50 was more than 200 nM.).
With `Cc1nc(N[C@H]2CC[C@@H](NC(=O)c3cc(C(C)(C)C)nn3Cc3ccc(Cl)cc3Cl)CC2)cc(N(C)C)n1` [compound 270] the class was 3 (Class 3: The value of percent of control at 10^−7 M was more than 60% or the value of IC50 was more than 200 nM.).
With `Cc1nc(N[C@H]2CC[C@@H](NC(=O)C3=Cc4cc(Cl)ccc4OC3)CC2)cc(N(C)C)n1` [compound 271] the class was 3 (Class 3: The value of percent of control at 10^−7 M was more than 60% or the value of IC50 was more than 200 nM.).
For `Cc1nc(N[C@H]2CC[C@@H](NC(=O)c3cnn(C)c3Cl)CC2)cc(N(C)C)n1` [compound 272], the class was 3 (Class 3: The value of percent of control at 10^−7 M was more than 60% or the value of IC50 was more than 200 nM.).
In the case of `Cc1nc(N[C@H]2CC[C@@H](NC(=O)COc3cccc4c(C)cc(=O)oc34)CC2)cc(N(C)C)n1` [compound 273], the class is reported as 3 (Class 3: The value of percent of control at 10^−7 M was more than 60% or the value of IC50 was more than 200 nM.).
For `Cc1nc(N[C@H]2CC[C@@H](NC(=O)CN3C(=O)c4ccccc4C3=O)CC2)cc(N(C)C)n1` [compound 274], the class was 3 (Class 3: The value of percent of control at 10^−7 M was more than 60% or the value of IC50 was more than 200 nM.).
In the case of `CC(=O)c1ccc(OCC(=O)N[C@H]2CC[C@@H](Nc3cc(N(C)C)nc(C)n3)CC2)cc1` [compound 275], the class is reported as 3 (Class 3: The value of percent of control at 10^−7 M was more than 60% or the value of IC50 was more than 200 nM.).
For `Cc1nc(N[C@H]2CC[C@@H](NC(=O)C3CCCC[C@@H]3NC(=O)c3ccccc3)CC2)cc(N(C)C)n1` (stereo partly drawn) [compound 276], the class was 3 (Class 3: The value of percent of control at 10^−7 M was more than 60% or the value of IC50 was more than 200 nM.).
In the case of `Cc1nc(N[C@H]2CC[C@@H](NC(=O)CC3=CCCCC3)CC2)cc(N(C)C)n1` [compound 278], the class is reported as 3 (Class 3: The value of percent of control at 10^−7 M was more than 60% or the value of IC50 was more than 200 nM.).
With `Cc1nc(N[C@H]2CC[C@@H](NC(=O)CC3CCCCC3)CC2)cc(N(C)C)n1` [compound 279] the class was 3 (Class 3: The value of percent of control at 10^−7 M was more than 60% or the value of IC50 was more than 200 nM.).
With `Cc1ccnc(SCC(=O)N[C@H]2CC[C@@H](Nc3cc(N(C)C)nc(C)n3)CC2)n1` [compound 280] the class was 3 (Class 3: The value of percent of control at 10^−7 M was more than 60% or the value of IC50 was more than 200 nM.).
`Cc1nc(N[C@H]2CC[C@@H](NC(=O)c3cc(C)n(Cc4cccs4)c3C)CC2)cc(N(C)C)n1` [compound 283] was tested, and the class was 3 (Class 3: The value of percent of control at 10^−7 M was more than 60% or the value of IC50 was more than 200 nM.).
`Cc1nc(N[C@H]2CC[C@@H](NC(=O)c3ccc(I)o3)CC2)cc(N(C)C)n1` [compound 285, N-(cis-4-{[6-(dimethylamino)-2-methylpyrimidin-4-yl]amino}cyclohexyl)-5-iodo-2-furamide] was tested, and the class was 3 (Class 3: The value of percent of control at 10^−7 M was more than 60% or the value of IC50 was more than 200 nM.).
`Cc1nc(N[C@H]2CC[C@@H](NC(=O)Cc3ccccc3I)CC2)cc(N(C)C)n1` [compound 287] was tested, and the class was 3 (Class 3: The value of percent of control at 10^−7 M was more than 60% or the value of IC50 was more than 200 nM.).
For `Cc1ccc(-c2cc(C(=O)N[C@H]3CC[C@@H](Nc4cc(N(C)C)nc(C)n4)CC3)cs2)cc1` [compound 288], the class was 3 (Class 3: The value of percent of control at 10^−7 M was more than 60% or the value of IC50 was more than 200 nM.).
For `Cc1nc(N[C@H]2CC[C@@H](NC(=O)Cc3nc(-c4ccccc4)sc3C)CC2)cc(N(C)C)n1` [compound 289], the class was 3 (Class 3: The value of percent of control at 10^−7 M was more than 60% or the value of IC50 was more than 200 nM.).
For `COc1ccc2c(CC(=O)N[C@H]3CC[C@@H](Nc4cc(N(C)C)nc(C)n4)CC3)cc(=O)oc2c1` [compound 291], the class was 3 (Class 3: The value of percent of control at 10^−7 M was more than 60% or the value of IC50 was more than 200 nM.).
For `Cc1nc(N[C@H]2CC[C@@H](NC(=O)CCC(=O)c3ccc(S(C)(=O)=O)cc3)CC2)cc(N(C)C)n1` [compound 292], the class was 3 (Class 3: The value of percent of control at 10^−7 M was more than 60% or the value of IC50 was more than 200 nM.).
`COc1ccc2[nH]c(C(=O)N[C@H]3CC[C@@H](Nc4cc(N(C)C)nc(C)n4)CC3)cc2c1` [compound 293] was tested, and the class was 3 (Class 3: The value of percent of control at 10^−7 M was more than 60% or the value of IC50 was more than 200 nM.).
`Cc1nc(N[C@H]2CC[C@@H](NC(=O)Cc3ccccc3C(=O)Nc3ccc(F)cc3F)CC2)cc(N(C)C)n1` [compound 294] was tested, and the class was 3 (Class 3: The value of percent of control at 10^−7 M was more than 60% or the value of IC50 was more than 200 nM.).
In the case of `COc1ccc(OC)c(NC(=O)Cc2ccccc2C(=O)N[C@H]2CC[C@@H](Nc3cc(N(C)C)nc(C)n3)CC2)c1` [compound 295], the class is reported as 3 (Class 3: The value of percent of control at 10^−7 M was more than 60% or the value of IC50 was more than 200 nM.).
`Cc1nc(N[C@H]2CC[C@@H](NC(=O)Cc3ccccc3C(=O)Nc3ccc(C(C)C)cc3)CC2)cc(N(C)C)n1` [compound 296] was tested, and the class was 3 (Class 3: The value of percent of control at 10^−7 M was more than 60% or the value of IC50 was more than 200 nM.).
With `Cc1nc(N[C@H]2CC[C@@H](NC(=O)Cc3ccccc3C(=O)Nc3ccc(OC(F)(F)F)cc3)CC2)cc(N(C)C)n1` [compound 297] the class was 3 (Class 3: The value of percent of control at 10^−7 M was more than 60% or the value of IC50 was more than 200 nM.).
With `Cc1nc(N[C@H]2CC[C@@H](NC(=O)CCCc3ccc([N+](=O)[O-])cc3)CC2)cc(N(C)C)n1` [compound 298] the class was 3 (Class 3: The value of percent of control at 10^−7 M was more than 60% or the value of IC50 was more than 200 nM.).
In the case of `Cc1nc(N[C@H]2CC[C@@H](NC(=O)Cc3ccc(Oc4ccccc4)cc3)CC2)cc(N(C)C)n1` [compound 300], the class is reported as 3 (Class 3: The value of percent of control at 10^−7 M was more than 60% or the value of IC50 was more than 200 nM.).
With `Cc1nc(N[C@H]2CC[C@@H](NC(=O)CCCCCCCCCCc3ccccc3)CC2)cc(N(C)C)n1` [compound 301] the class was 3 (Class 3: The value of percent of control at 10^−7 M was more than 60% or the value of IC50 was more than 200 nM.).
For `Cc1nc(N[C@H]2CC[C@@H](NC(=O)CSc3ccncc3)CC2)cc(N(C)C)n1` [compound 302], the class was 3 (Class 3: The value of percent of control at 10^−7 M was more than 60% or the value of IC50 was more than 200 nM.).
`Cc1nc(N[C@H]2CC[C@@H](NC(=O)CNc3ccccc3)CC2)cc(N(C)C)n1` [compound 303] was tested, and the class was 3 (Class 3: The value of percent of control at 10^−7 M was more than 60% or the value of IC50 was more than 200 nM.).
For `Cc1nc(N[C@H]2CC[C@@H](NC(=O)c3ccccc3C(=O)c3ccc(F)cc3)CC2)cc(N(C)C)n1` [compound 304], the class was 3 (Class 3: The value of percent of control at 10^−7 M was more than 60% or the value of IC50 was more than 200 nM.).
In the case of `Cc1nc(N[C@H]2CC[C@@H](NC(=O)c3ccccc3CCc3ccccc3)CC2)cc(N(C)C)n1` [compound 305], the class is reported as 3 (Class 3: The value of percent of control at 10^−7 M was more than 60% or the value of IC50 was more than 200 nM.).
In the case of `CCSC(C(=O)N[C@H]1CC[C@@H](Nc2cc(N(C)C)nc(C)n2)CC1)(c1ccccc1)c1ccccc1` [compound 306, N-(cis-4-{[6-(dimethylamino)-2-methylpyrimidin-4-yl]amino}cyclohexyl)-2-(ethylthio)-2,2-diphenylacetamide], the class is reported as 1 (Class 1: The value of percent of control at 10^−7 M was less than 40% or the value of IC50 was less than 50 nM.).
`Cc1nc(N[C@H]2CC[C@@H](NC(=O)c3ccccc3-c3ccc(C(F)(F)F)cc3)CC2)cc(N(C)C)n1` [compound 307] was tested, and the class was 3 (Class 3: The value of percent of control at 10^−7 M was more than 60% or the value of IC50 was more than 200 nM.).
`Cc1nc(N[C@H]2CC[C@@H](NC(=O)c3cccc4c3-c3ccc([N+](=O)[O-])cc3C4)CC2)cc(N(C)C)n1` [compound 308] was tested, and the class was 3 (Class 3: The value of percent of control at 10^−7 M was more than 60% or the value of IC50 was more than 200 nM.).
For `Cc1nc(N[C@H]2CC[C@@H](NC(=O)[C@@H](C)c3cccc(C(=O)c4ccccc4)c3)CC2)cc(N(C)C)n1` [compound 309], the class was 3 (Class 3: The value of percent of control at 10^−7 M was more than 60% or the value of IC50 was more than 200 nM.).
With `Cc1nc(N[C@H]2CC[C@@H](NC(=O)Cc3ccc(OC(F)(F)F)cc3)CC2)cc(N(C)C)n1` [compound 313] the class was 3 (Class 3: The value of percent of control at 10^−7 M was more than 60% or the value of IC50 was more than 200 nM.).
`Cc1nc(N[C@H]2CC[C@@H](NC(=O)Cc3ccc(SC(F)(F)F)cc3)CC2)cc(N(C)C)n1` [compound 315] was tested, and the class was 3 (Class 3: The value of percent of control at 10^−7 M was more than 60% or the value of IC50 was more than 200 nM.).
In the case of `Cc1nc(N[C@H]2CC[C@@H](NC(=O)CCCCc3cccs3)CC2)cc(N(C)C)n1` [compound 316], the class is reported as 3 (Class 3: The value of percent of control at 10^−7 M was more than 60% or the value of IC50 was more than 200 nM.).
For `Cc1ccc(S(=O)(=O)NCC(=O)N[C@H]2CC[C@@H](Nc3cc(N(C)C)nc(C)n3)CC2)cc1` [compound 317], the class was 3 (Class 3: The value of percent of control at 10^−7 M was more than 60% or the value of IC50 was more than 200 nM.).
